Columns and labels:
D(1A) dopamine receptor [1] = biological target: T1, D(1A) dopamine receptor (Homo sapiens, UniProt P21728)
[2] = biological target: Gamma-aminobutyric acid type B receptor subunit 1 (Homo sapiens, UniProt Q9UBS5)
[3] = biological target: T2, Corticotropin-releasing factor receptor 2 (Homo sapiens, UniProt Q13324)
T2 sequence (Q13324 whole entry): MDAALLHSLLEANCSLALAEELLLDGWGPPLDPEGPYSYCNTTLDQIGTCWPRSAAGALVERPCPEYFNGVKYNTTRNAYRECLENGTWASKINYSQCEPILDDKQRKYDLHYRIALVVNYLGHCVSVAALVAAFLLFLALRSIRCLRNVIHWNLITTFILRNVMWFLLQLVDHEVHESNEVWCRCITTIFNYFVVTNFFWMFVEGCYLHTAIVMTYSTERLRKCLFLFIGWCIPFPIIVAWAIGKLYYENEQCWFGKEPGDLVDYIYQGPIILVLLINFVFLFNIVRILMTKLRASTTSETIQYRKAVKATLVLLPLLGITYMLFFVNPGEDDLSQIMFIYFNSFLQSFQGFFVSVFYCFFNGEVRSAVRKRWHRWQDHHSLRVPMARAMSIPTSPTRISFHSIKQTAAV

Cannabinoid receptor 1 = Cannabinoid receptor 1 (Homo sapiens, UniProt P21554); type: functional
Chain of Cannabinoid receptor 1 (P21554 whole entry): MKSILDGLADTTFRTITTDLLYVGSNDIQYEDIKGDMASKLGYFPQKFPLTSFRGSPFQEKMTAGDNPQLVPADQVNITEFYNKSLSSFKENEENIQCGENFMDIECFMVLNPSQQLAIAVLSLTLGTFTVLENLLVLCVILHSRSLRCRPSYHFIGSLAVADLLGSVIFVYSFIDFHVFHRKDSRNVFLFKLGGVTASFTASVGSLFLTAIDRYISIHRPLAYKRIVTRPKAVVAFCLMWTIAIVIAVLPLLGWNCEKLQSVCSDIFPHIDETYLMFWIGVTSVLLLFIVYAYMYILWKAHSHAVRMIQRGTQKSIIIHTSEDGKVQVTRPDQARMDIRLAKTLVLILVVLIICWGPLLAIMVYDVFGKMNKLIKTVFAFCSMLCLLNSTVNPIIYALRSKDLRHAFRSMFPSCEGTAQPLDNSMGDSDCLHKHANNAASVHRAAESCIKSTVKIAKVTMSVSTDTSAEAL

Estrogen receptor beta = Estrogen receptor beta (Homo sapiens, UniProt Q92731)
Chain of Estrogen receptor beta (Q92731 whole entry): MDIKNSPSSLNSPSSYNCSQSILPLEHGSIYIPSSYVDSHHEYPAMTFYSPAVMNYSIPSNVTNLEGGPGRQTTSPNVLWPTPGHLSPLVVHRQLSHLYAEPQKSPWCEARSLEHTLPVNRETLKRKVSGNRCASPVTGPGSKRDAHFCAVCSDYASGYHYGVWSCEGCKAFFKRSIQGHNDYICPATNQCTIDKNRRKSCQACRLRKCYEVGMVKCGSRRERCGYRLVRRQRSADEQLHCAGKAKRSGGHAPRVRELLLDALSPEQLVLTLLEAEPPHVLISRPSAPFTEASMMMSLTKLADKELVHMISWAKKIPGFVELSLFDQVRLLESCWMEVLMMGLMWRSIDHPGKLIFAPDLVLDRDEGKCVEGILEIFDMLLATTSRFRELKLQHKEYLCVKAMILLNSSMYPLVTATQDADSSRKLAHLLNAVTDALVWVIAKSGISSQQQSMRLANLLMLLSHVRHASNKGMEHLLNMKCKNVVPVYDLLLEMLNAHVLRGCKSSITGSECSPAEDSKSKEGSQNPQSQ

D(1A) dopamine receptor [4] = biological target: T1, D(1A) dopamine receptor; remark: listed apart in the source
D(3) dopamine receptor = D(3) dopamine receptor (Homo sapiens, UniProt P35462)
Chain of D(3) dopamine receptor (P35462 whole entry): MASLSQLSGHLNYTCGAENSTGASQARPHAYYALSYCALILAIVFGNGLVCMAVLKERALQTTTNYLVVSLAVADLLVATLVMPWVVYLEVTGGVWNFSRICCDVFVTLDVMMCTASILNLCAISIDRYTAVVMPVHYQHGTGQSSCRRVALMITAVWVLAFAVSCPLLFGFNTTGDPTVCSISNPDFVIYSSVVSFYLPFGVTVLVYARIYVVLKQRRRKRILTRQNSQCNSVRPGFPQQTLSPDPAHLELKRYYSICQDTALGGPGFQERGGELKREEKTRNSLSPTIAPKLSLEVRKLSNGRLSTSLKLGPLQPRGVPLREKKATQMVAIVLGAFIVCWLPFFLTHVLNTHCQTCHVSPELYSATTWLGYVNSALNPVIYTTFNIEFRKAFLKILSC

[5] = biological target: Vascular endothelial growth factor receptor 2 (Homo sapiens, UniProt P35968); type: functional
Chain of Vascular endothelial growth factor receptor 2 (P35968 whole entry): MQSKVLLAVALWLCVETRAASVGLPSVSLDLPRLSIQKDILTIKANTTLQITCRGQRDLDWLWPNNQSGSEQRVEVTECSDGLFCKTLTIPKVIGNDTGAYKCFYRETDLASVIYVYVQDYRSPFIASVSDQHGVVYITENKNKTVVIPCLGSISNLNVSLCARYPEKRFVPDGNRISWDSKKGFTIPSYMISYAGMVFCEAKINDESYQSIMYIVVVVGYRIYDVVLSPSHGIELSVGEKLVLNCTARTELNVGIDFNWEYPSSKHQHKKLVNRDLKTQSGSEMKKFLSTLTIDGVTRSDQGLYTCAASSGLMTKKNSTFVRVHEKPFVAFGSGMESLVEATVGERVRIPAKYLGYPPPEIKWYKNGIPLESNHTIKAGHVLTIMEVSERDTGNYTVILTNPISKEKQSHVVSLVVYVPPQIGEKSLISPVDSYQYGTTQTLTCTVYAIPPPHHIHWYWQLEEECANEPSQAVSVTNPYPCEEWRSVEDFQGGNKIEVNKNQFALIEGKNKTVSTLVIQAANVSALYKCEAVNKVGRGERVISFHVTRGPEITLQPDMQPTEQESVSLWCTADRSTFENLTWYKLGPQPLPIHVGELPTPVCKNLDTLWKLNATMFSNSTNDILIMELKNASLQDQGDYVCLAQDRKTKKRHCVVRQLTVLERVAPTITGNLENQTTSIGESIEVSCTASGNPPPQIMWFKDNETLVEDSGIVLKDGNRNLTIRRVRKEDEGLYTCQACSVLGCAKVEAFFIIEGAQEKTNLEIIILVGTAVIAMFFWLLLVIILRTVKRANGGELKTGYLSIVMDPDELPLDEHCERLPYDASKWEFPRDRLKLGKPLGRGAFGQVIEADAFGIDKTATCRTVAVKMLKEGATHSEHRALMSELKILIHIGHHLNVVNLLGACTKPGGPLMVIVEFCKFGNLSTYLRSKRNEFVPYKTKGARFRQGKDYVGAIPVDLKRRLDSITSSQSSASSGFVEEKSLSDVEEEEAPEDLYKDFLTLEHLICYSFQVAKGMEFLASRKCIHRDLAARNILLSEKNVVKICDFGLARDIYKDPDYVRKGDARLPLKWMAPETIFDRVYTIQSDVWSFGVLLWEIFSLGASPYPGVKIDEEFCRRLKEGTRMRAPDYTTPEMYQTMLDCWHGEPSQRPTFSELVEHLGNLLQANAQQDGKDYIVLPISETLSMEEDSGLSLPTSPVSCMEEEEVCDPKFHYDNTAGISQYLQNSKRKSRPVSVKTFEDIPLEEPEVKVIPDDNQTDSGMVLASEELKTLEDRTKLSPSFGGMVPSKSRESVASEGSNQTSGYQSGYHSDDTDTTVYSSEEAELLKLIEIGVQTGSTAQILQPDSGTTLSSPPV

Androgen receptor = biological target: T3, Androgen receptor (Homo sapiens, UniProt P10275)
T3 sequence (P10275 whole entry): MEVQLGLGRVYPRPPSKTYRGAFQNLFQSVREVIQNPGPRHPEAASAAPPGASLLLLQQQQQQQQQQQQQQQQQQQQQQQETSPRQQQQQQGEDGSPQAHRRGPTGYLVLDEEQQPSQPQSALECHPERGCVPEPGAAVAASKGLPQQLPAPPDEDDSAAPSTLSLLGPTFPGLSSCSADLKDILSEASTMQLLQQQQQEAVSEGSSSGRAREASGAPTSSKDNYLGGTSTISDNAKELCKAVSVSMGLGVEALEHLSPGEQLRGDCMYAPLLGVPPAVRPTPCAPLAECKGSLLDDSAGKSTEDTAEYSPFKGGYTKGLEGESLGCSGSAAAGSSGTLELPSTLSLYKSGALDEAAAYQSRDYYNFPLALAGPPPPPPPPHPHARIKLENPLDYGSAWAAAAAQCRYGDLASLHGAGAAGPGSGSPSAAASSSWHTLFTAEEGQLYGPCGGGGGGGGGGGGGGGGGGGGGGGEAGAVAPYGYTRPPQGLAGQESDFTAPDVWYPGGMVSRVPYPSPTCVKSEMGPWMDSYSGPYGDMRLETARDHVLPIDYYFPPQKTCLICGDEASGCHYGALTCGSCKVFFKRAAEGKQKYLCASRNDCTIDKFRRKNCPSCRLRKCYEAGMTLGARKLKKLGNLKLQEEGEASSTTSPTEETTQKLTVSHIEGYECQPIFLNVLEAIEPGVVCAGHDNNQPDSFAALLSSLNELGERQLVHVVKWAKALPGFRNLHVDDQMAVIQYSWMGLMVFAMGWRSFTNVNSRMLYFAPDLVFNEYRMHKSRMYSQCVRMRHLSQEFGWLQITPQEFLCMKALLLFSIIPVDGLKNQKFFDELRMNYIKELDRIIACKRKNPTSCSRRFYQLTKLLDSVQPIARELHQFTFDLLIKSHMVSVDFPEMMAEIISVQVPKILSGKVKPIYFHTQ

Histamine H1 receptor = Histamine H1 receptor (Homo sapiens, UniProt P35367); type: functional, cell-based
Chain of Histamine H1 receptor (P35367 whole entry): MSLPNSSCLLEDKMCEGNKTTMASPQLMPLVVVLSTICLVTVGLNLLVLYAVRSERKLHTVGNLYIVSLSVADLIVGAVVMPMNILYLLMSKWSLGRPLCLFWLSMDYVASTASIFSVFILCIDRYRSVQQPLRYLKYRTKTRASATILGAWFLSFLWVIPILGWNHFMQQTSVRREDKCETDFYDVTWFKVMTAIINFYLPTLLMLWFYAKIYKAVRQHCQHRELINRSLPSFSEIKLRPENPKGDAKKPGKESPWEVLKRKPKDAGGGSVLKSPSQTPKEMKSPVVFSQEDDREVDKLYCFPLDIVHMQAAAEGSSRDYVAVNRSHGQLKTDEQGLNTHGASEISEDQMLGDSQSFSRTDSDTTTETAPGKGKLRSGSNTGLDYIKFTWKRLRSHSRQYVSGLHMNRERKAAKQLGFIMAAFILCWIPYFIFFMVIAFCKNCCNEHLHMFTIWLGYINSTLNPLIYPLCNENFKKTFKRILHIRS

D(1A) dopamine receptor [6] = biological target: T1, D(1A) dopamine receptor; type: functional, cell-based
[7] = biological target: 5-hydroxytryptamine receptor 2A (Homo sapiens, UniProt P28223)
Estrogen receptor = biological target: T4, Estrogen receptor (Homo sapiens, UniProt P03372)
T4 sequence (P03372 whole entry): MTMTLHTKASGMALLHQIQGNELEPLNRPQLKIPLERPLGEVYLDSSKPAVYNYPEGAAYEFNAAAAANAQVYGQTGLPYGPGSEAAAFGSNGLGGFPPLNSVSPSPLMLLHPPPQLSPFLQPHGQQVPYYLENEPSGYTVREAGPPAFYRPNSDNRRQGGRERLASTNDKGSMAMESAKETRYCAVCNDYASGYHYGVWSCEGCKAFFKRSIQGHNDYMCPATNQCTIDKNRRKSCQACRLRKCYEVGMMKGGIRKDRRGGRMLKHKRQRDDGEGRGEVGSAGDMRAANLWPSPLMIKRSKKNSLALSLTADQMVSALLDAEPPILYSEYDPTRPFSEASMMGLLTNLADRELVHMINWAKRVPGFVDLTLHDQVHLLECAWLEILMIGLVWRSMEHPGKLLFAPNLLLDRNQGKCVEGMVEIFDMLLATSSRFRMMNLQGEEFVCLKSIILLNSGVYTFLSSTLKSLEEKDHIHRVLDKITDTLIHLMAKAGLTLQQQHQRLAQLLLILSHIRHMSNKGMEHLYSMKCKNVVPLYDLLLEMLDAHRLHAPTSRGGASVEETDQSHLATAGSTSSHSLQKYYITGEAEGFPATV

Thromboxane A2 receptor = biological target: T5, Thromboxane A2 receptor (Homo sapiens, UniProt P21731); type: functional, cell-based
T5 sequence (P21731 whole entry): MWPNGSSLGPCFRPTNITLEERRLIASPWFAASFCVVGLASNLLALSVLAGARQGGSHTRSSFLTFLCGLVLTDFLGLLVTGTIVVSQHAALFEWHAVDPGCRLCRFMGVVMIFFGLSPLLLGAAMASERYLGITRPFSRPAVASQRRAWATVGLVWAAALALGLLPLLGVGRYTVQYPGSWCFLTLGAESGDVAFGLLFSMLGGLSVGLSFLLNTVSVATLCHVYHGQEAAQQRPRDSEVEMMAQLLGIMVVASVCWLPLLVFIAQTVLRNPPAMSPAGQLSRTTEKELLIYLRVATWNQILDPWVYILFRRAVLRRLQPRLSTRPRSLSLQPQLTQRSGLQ
Further: assay procedure not described here.

T1 sequence (P21728 whole entry): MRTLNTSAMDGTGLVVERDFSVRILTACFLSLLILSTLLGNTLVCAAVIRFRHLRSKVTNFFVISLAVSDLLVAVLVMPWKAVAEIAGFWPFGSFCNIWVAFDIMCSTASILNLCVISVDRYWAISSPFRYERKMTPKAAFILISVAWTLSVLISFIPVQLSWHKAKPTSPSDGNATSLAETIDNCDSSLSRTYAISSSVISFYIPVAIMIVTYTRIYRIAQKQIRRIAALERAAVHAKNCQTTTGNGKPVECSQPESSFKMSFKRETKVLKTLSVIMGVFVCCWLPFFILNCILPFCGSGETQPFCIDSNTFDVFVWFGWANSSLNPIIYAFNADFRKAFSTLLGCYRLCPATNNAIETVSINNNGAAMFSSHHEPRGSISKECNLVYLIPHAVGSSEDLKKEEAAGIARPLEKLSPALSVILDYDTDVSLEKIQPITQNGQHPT
Chain of Gamma-aminobutyric acid type B receptor subunit 1 (Q9UBS5 whole entry): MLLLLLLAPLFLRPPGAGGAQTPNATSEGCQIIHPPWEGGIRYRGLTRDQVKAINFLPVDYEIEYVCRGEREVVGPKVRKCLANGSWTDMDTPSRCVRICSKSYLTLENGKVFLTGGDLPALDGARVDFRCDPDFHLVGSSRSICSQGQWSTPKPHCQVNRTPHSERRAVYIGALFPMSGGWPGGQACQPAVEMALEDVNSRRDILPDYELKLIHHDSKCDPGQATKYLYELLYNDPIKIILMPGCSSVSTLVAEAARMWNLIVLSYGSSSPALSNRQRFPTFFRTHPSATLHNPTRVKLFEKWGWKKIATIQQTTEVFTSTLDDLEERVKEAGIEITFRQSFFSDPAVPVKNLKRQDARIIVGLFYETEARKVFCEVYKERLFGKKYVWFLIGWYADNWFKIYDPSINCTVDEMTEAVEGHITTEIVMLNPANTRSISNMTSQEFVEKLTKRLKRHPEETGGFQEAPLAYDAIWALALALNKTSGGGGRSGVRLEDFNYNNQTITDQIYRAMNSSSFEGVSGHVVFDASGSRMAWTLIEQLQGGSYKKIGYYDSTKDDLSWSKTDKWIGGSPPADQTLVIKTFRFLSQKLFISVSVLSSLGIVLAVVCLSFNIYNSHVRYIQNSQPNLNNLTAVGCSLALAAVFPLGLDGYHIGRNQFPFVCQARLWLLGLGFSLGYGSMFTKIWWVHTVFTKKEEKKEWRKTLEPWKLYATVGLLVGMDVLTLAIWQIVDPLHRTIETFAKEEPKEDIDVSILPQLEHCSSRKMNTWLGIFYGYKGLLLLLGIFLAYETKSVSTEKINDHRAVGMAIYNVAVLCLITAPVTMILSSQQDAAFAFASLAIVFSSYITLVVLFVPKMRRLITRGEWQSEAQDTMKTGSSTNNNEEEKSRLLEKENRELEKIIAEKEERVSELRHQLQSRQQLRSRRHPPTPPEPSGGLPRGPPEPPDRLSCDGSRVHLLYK

Q: Which results are given for `Cc1c(OCC(F)(F)F)ccnc1C[S+]([O-])c1nc2ccccc2[nH]1` (stereo unspecified) [LANSOPRAZOLE]?
A: AC50 (D(1A) dopamine receptor [1]): > 10 µM; AC50 [2]: > 10 µM; AC50 [3]: > 30 µM; AC50 (Cannabinoid receptor 1): > 10 µM; AC50 (Estrogen receptor beta): > 30 µM

Q: Which AC50 (D(1A) dopamine receptor [4]) does the source give for `CO[C@]12C[C@@H](COC(=O)c3cncc(Br)c3)CN(C)[C@@H]1Cc1cn(C)c3cccc2c13` [NICERGOLINE] here?
A: 0.393 µM

Q: And the AC50 (D(3) dopamine receptor)?
A: 0.641 µM

Q: What about the AC50 [5] of the same molecule?
A: > 30 µM

Q: What about the AC50 (Androgen receptor) of the same molecule?
A: > 30 µM

Q: With `NC(=O)CN1CC(O)CC1=O` (stereo unspecified) [OXIRACETAM] as the molecule, how does the AC50 (Histamine H1 receptor) read?
A: > 30 µM

Q: For `Cc1cc(C(C)(C)C)c(O)c(C)c1CC1=NCCN1` [OXYMETAZOLINE], which AC50 (D(1A) dopamine receptor [6]) is on record?
A: > 30 µM

Q: With `COc1cccc(C2(O)CCCCC2CN(C)C)c1` (stereo unspecified) [TRAMADOL] as the molecule, how does the AC50 (D(1A) dopamine receptor [1]) read?
A: > 10 µM

Q: And the AC50 [3]?
A: > 30 µM

Q: Which AC50 [7] does the source give for `Cc1nnc2n1-c1ccc(Cl)cc1C(c1ccccc1Cl)=NC2` [TRIAZOLAM] here?
A: 3.2 µM

Q: THIMEROSAL was tested. Which AC50 (Estrogen receptor) did it give?
A: > 30 µM

Q: What about the AC50 (Thromboxane A2 receptor) of the same molecule?
A: > 10 µM

Reference: ChEMBL document CHEMBL5291721, “A preclinical secondary pharmacology resource illuminates target-adverse drug reaction associations of marketed drugs” (Nat Commun, 2023)
